Test results from BindingDB's records for doi:10.1124/jpet.302.2.687 (University of Kentucky, 2002).
Where a name gives a salt, the structure may show the parent alone.

Biological target: Nicotinic acetylcholine receptor (Rattus leucopus, UniProt Q62594)
Sequence (Q62594 whole entry): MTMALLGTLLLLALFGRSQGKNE

CC(NC(C)(C)C)C(=O)c1cccc(Cl)c1 (stereo unspecified) [BUPROPION HYDROCHLORIDE] was tested, and the Ki was > 10 µM.
